Tests used:
[1] = Inhibition of human recombinant beta-tryptase pre-incubated for 3 hrs before N-tert-butoxycarbonyl-Gln-Ala-Arg-AMC substrate addition and measured every 30 secs for 15 mins by spectrometry
[2] = Apparent permeability from apical to basolateral side in MDCK cells; assay type: ADME, cell-based, Canis lupus familiaris; conditions: dog
[3] = Effective permeability from apical to basolateral side in PAMPA method; assay type: ADME; conditions: read-out: Peff
[4] = Effective permeability assessed as mass retention by PAMPA method; assay type: ADME
[5] = Dissociation constant, pKa of the compound (NH3*) by pH metric assay; assay type: physicochemical
[6] = Dissociation constant, pKa of the compound (OH) by UV metric assay; assay type: physicochemical
[7] = Dissociation constant, pKa of the compound (OH) by pH metric assay; assay type: physicochemical
[8] = Stability in human liver microsomes assessed as parent compound remaining at 15 uM in presence of NADPH incubated for 60 mins; assay type: ADME, Microsome; conditions: liver microsomes, read-out: Stability
[9] = Stability in human liver microsomes assessed as parent compound remaining at 15 uM in absence of NADPH incubated for 60 mins; assay type: ADME, Microsome; conditions: liver microsomes, read-out: Stability
[10] = Stability in mouse liver microsomes assessed as parent compound remaining at 15 uM in absence of NADPH incubated for 60 mins; assay type: ADME, Microsome; conditions: read-out: Stability
[11] = Stability in rat liver microsomes assessed as parent compound remaining at 15 uM in presence of NADPH incubated for 60 mins; assay type: ADME, Microsome; conditions: read-out: Stability
[12] = Stability in rat liver microsomes assessed as parent compound remaining at 15 uM in absence of NADPH incubated for 60 mins; assay type: ADME, Microsome; conditions: read-out: Stability
[13] = Stability in mouse liver microsomes assessed as parent compound remaining at 15 uM in presence of NADPH incubated for 60 mins; assay type: ADME, Microsome; conditions: read-out: Stability
CYP1A2 = biological target: T1, CYP1A2 (Homo sapiens, UniProt P05177); experiment: Inhibition of CYP1A2 (unknown origin) at 10 uM relative to control; assay type: ADME
T1 sequence (P05177 whole entry): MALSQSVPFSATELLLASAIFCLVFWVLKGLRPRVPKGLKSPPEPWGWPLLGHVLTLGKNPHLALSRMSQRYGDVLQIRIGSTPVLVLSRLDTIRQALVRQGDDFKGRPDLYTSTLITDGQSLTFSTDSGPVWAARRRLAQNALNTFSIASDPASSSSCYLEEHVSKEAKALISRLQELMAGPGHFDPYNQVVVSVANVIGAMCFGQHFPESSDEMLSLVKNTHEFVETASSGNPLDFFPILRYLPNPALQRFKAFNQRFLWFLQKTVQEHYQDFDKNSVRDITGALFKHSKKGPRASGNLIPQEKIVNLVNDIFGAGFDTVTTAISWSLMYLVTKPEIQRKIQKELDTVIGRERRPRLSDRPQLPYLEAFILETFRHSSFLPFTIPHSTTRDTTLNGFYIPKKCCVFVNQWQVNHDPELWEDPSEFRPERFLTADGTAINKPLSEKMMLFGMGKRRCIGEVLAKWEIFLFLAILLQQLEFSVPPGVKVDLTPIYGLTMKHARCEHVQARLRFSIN

CYP2D6 = CYP2D6 (Homo sapiens, UniProt P10635); experiment: Inhibition of CYP2D6 (unknown origin) at 10 uM relative to control; assay type: ADME
CYP2D6, sequence (P10635 whole entry): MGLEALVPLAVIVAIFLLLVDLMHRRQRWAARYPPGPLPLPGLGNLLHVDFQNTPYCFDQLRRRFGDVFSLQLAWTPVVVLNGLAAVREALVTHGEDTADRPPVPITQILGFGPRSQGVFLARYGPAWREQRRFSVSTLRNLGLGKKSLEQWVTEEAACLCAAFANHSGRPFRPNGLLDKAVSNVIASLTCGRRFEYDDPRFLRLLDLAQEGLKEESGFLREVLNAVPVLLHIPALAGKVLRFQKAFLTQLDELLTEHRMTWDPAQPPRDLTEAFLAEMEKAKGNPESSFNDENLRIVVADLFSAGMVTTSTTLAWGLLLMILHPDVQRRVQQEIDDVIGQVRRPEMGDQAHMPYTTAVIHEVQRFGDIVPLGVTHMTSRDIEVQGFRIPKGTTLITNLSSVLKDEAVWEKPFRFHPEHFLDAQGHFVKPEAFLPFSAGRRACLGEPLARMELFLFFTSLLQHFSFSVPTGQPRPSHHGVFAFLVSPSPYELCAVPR

CYP3A4 = CYP3A4 (Homo sapiens, UniProt P08684); experiment: Inhibition of CYP3A4 (unknown origin) at 10 uM relative to control; assay type: ADME
CYP3A4, sequence (P08684 whole entry): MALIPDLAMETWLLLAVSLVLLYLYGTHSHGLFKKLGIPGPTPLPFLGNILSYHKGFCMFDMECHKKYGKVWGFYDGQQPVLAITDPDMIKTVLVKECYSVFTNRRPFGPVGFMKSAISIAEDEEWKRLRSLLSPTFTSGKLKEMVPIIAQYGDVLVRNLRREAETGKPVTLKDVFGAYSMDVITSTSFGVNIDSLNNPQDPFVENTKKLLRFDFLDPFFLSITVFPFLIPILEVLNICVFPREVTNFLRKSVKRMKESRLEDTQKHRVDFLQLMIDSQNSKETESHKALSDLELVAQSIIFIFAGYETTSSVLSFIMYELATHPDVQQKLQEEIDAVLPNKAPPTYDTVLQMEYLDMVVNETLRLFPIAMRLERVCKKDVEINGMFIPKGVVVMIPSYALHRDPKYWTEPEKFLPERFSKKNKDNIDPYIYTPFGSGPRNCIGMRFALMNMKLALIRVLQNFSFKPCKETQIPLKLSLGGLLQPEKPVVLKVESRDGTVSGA

CYP2C9 = CYP2C9 (Homo sapiens, UniProt P11712); experiment: Inhibition of CYP2C9 (unknown origin) at 10 uM relative to control; assay type: ADME
CYP2C9, sequence (P11712 whole entry): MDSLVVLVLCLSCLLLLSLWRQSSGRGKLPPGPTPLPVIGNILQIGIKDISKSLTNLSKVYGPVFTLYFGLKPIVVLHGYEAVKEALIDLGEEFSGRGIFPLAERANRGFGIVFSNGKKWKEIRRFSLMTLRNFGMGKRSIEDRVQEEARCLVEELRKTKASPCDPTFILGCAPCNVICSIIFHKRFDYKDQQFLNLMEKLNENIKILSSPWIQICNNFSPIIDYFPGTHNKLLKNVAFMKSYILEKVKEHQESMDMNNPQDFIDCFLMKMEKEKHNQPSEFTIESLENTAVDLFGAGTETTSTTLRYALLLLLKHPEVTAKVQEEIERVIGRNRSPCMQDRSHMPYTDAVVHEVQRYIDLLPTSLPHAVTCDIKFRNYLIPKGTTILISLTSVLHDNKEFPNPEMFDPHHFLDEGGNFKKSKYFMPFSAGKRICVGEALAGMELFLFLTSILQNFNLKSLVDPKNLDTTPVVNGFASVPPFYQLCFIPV

CYP2C19 = CYP2C19 (Homo sapiens, UniProt P33261); experiment: Inhibition of CYP2C19 (unknown origin) at 10 uM relative to control; assay type: ADME
CYP2C19, sequence (P33261 whole entry): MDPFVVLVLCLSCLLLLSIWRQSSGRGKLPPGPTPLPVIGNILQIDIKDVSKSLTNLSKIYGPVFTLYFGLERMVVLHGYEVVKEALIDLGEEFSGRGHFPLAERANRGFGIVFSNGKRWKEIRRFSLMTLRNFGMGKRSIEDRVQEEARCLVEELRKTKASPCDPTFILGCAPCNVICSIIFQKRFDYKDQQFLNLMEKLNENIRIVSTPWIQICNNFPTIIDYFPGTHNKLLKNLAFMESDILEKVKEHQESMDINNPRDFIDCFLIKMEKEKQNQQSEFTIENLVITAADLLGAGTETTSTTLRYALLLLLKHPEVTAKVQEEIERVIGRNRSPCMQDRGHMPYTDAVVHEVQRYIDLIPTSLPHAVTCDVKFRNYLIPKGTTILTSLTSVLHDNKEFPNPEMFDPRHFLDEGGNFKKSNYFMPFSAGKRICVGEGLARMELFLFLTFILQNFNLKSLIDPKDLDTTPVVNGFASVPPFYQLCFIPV

Homo sapiens = species: Homo sapiens; experiment: Inhibition of human recombinant beta-tryptase assessed as remaining enzyme activity at 10 uM pre-incubated for 3 hrs before N-tert-butoxycarbonyl-Gln-Ala-Arg-AMC substrate addition and measured after 8 hrs by spectrometry relative to control
[14] = Inhibition of beta-tryptase in human HMC1 cells assessed as effect on A23187-induced degranulation; assay type: cell-based
[15] = Inhibition of beta-tryptase in human HMC1 cells assessed as effect on tryptase activity by measured cell lysis; assay type: cell-based
[16] = Plasma concentration in mouse xenografted with human HMC1 cells at 10 mg/kg, iv dosed at time 0 and again 24 hrs later and measured at 0 hrs after second dose by LC-MS/MS analysis; assay type: ADME, organism-based
[17] = Plasma concentration in mouse xenografted with human HMC1 cells at 10 mg/kg, iv dosed at time 0 and again 24 hrs later and measured at 2 hrs after second dose by LC-MS/MS analysis; assay type: ADME, organism-based
[18] = Plasma concentration in mouse xenografted with human HMC1 cells at 10 mg/kg, iv dosed at time 0 and again 24 hrs later and measured at 8 hrs after second dose by LC-MS/MS analysis; assay type: ADME, organism-based
[19] = Plasma concentration in mouse xenografted with human HMC1 cells at 10 mg/kg, iv dosed at time 0 and again 24 hrs later and measured at 24 hrs after second dose by LC-MS/MS analysis; assay type: ADME, organism-based
[20] = Drug concentration in tumor of mouse xenografted with human HMC1 cells at 10 mg/kg, iv dosed at time 0 and again 24 hrs later and measured at 0 hrs after second dose by LC-MS/MS analysis; assay type: ADME, organism-based, Neoplasm; conditions: read-out: Drug uptake
[21] = Drug concentration in tumor of mouse xenografted with human HMC1 cells at 10 mg/kg, iv dosed at time 0 and again 24 hrs later and measured at 2 hrs after second dose by LC-MS/MS analysis; assay type: ADME, organism-based, Neoplasm; conditions: read-out: Drug uptake
[22] = Drug concentration in tumor of mouse xenografted with human HMC1 cells at 10 mg/kg, iv dosed at time 0 and again 24 hrs later and measured at 8 hrs after second dose by LC-MS/MS analysis; assay type: ADME, organism-based, Neoplasm; conditions: read-out: Drug uptake
[23] = Drug concentration in tumor of mouse xenografted with human HMC1 cells at 10 mg/kg, iv dosed at time 0 and again 24 hrs later and measured at 24 hrs after second dose by LC-MS/MS analysis; assay type: ADME, organism-based, Neoplasm; conditions: read-out: Drug uptake
[24] = Drug concentration in tumor of mouse xenografted with human HMC1 cells at 10 mg/kg, iv dosed at time 0 and again 24 hrs later and measured at 48 hrs after second dose by LC-MS/MS analysis; assay type: ADME, organism-based, Neoplasm; conditions: read-out: Drug uptake

`NCc1cccc(C2CCN(C(=O)/C=C/c3ccc(O)c(O)c3)CC2)c1` gave an IC50 [1] of 3.84 µM, a Papp A→B [2] of 0.31 ×10⁻⁶ cm/s and a Papp [3] of 0.01 ×10⁻⁶ cm/s. It also gave an Activity [4] of 26.3%, a pKa [5] of 9.67 and a pKa [6] of 7.37. It also gave a pKa [7] of 8.11, a remaining at 1 h, 15 µM [8] of 8% and a remaining at 1 h, 15 µM [9] of 11%. For the same compound, the remaining at 1 h, 15 µM [10] was 36%, the remaining at 1 h, 15 µM [11] was 37% and the remaining at 1 h, 15 µM [12] was 73%. It also gave a remaining at 1 h, 15 µM [13] of 18%, an inhibition at 10 µM (CYP1A2) of 18% and an inhibition at 10 µM (CYP2D6) of 47%. It also gave an inhibition at 10 µM (CYP3A4) of 19%, an inhibition at 10 µM (CYP2C9) of 75% and an inhibition at 10 µM (CYP2C19) of 77%.
For `NCc1ccc2c(c1)C1(CCN(C(=O)c3cccc(-c4cccc(B5Oc6cc(C(=O)N7CCC8(CC7)COc7ccc(CN)cc78)cc(Cl)c6O5)c4)c3)CC1)CO2`, the Activity (Homo sapiens) was 50%, the IC50 [14] was 0.24 µM and the IC50 [15] was 5.45 µM.
In the case of `NCc1ccc2c(c1)C1(CCN(C(=O)c3cccc(-c4cccc(B(O)O)c4)c3)CC1)CO2.O=C(O)C(F)(F)F`, the concentration at 0 h [16] is reported as 0.53 nM, the concentration at 2 h [17] is reported as 1290 nM and the concentration at 8 h [18] is reported as 43 nM. The concentration at 24 h [19] was 0.14 nM, the concentration at 0 h [20] was 27.9 nM and the concentration at 2 h [21] was 554 nM. The concentration at 8 h [22] was 107 nM, the concentration at 24 h [23] was 2.14 nM and the concentration at 48 h [24] was 0.56 nM.

— ChEMBL document CHEMBL4342466, “Novel, Self-Assembling Dimeric Inhibitors of Human β Tryptase” (J Med Chem, 2020)
